Patent US8486947B2, “Treatment of Parkinson's disease, obstructive sleep apnea, dementia with Lewy bodies, vascular dementia with non-imidazole alkylamines histamine H3-receptor ligands” (Bioprojet, priority 2005, dated 2013)

Assays:
[1] = test system: MPTP-treated cats (experimentally induced parkinsonism); test: Sleep-wakefulness patterns by electromyographic and EEG recordings in MPTP-treated parkinsonian cats; assay type: in vivo, cat; conditions: oral dose of 10 mg/kg
Protocol: As assessed by electromyographic and EEG recordings, treatment with BF 2.-649 (3-(4-Chlorophenyl)propyl 3-piperidinopropyl ether), a potent and selective H3-antagonist, at an oral dose of 10 mg/kg, normalized these sleep-wakefulness patterns.

[2] = test system: patients with a diagnostic of OSA; test: Single-blind trial against placebo in male patients with obstructive sleep apnea, 3-day treatment; assay type: in vivo, human; conditions: 40 mg oral once a day, 3 days
Protocol: In a group of 10 male patients with a diagnostic of OSA, confirmed by polysomnography performed during a night in an hospital setting, an Epswoth score above 12 and a body mass index of less than 35, the effect of a 3-day treatment with BF 2.649 (3-(4-Chlorophenyl)propyl 3-piperidinopropyl ether) was assessed in a single-blind trial against placebo, at a fixed oral dose of 40 mg once a day.
In addition the nocturnal sleep duration was not decreased and its quality was improved. This clinical trial establishes for the first time the utility of H3 antagonists/inverse agonists in OSA.

[3] = test system: acetylcholine concentration in brain; test: Rat brain microdialysis of acetylcholine, combination with acetylcholinesterase inhibitors; assay type: in vivo; conditions: rats, co-administered with donepezil, rivastigmine or gallanthamine
Protocol: (§1) Generally, dementia with Lewi bodies is treated with acetylcholinesterase inhibitors such as donepezil, rivastigmine or gallanthamine. These agents increase the acetylcholine concentration in the is brain extracellular space. Combinations of a compound of the invention and one of these agents were tested on rats. The drug was selected from donepezil, rivastigmine or gallanthamine and administered in combination with 3-(4-Chlorophenyl)propyl 3-piperidinopropyl ether in rats.

[4] = test system: rats; test: Tolerability of the combinations with acetylcholinesterase inhibitors in rats; assay type: in vivo, rat; conditions: combination with donepezil, rivastigmine or gallanthamine
Protocol: as §1

[5] = test system: rats suffering from Parkinson; test: Combination with an anti-parkinson drug in rats; assay type: in vivo, rat
Protocol: (§2) Combinations of a compound of the invention and a anti-parkinson drug were tested on rats and humans suffering from Parkinson.

[6] = test system: humans suffering from Parkinson; test: Combination with an anti-parkinson drug in humans suffering from Parkinson; assay type: in vivo, human; conditions: 40 mg p.o.
Protocol: as §2

[7] = test system: patients suffering from obstructive sleep apnea (OSA); test: Two clinical studies (single-blinded or double-blinded against placebo, polysomnographical test) in OSA patients; assay type: in vivo, human; conditions: 40 mg p.o. once a day during 3 and 7 days
Protocol: Two clinical studies were conducted on patients suffering from obstructive sleep apnea (OSA), in a single-blinded or double-blinded trial against placebo with a polysomnographical test on patients.
In both studies, patients were administered with 3-(4-Chlorophenyl)propyl 3-piperidinopropyl ether at 40 mg p.o. once a day during 3 and 7 days.
In both studies, daytime sleepiness was improved in accordance with the Epworth test or according to the frequency of naps or daytime sleepiness occurrences. The average daytime sleepiness could be reduced by up to 50%.

[8] = test system: histamine H3-receptor; conditions: literature reports; cited from earlier work
[9] = test system: PD patients; conditions: cited from earlier work
[10] = test system: Parkinsonian rat (unilateral 6-hydroxydopamine); conditions: 6-hydroxydopamine rat, co-administered with levodopa; cited from earlier work
[11] = combination with anti-parkinson drug
[12] = combination with ropinirole, lisuride, bromocriptine, levodopa or pramiprexole

Clc1ccc(CCCOCCCN2CCCCC2)cc1 [BF 2.649, 3-(4-Chlorophenyl)propyl 3-piperidinopropyl ether]
long periods of sleep (model of excessive daytime sleepiness) [1]: largely suppressed
sleep-wakefulness patterns ([1]; EMG and EEG recordings): normalized
nocturnal sleep duration [2]: not decreased
nocturnal sleep quality [2]: improved
occurrence of diurnal sleep episodes [2]: total prevention
decrease in the number of diurnal somnolence episodes ([2]; all subjects): more than 60%
increase of the acetylcholine concentration in brain (microdialysis) [3]: potentialised
tolerability, in particular cardiovascular parameters [4]: well tolerated
dose of the anti-parkinson drug needed [5, 11]: allowed lower doses
motor symptoms [5, 12]: significantly improved
dose of the anti-parkinson drug needed [6, 11]: allowed lower doses
motor symptoms [6, 12]: significantly improved
daytime sleepiness (Epworth test, frequency of naps or daytime sleepiness occurrences) [7]: improved
reduction of average daytime sleepiness [7]: up to 50%

CNCCc1ccccn1 [betahistine]
H3-receptor antagonism potency [8]: very low potency

CN(C)CCCSC(=N)N [dimaprit]
H3-receptor antagonism potency [8]: very low potency

NC(=O)C[S+]([O-])C(c1ccccc1)c1ccccc1 (stereo not shown) [modafinil]
treatment of excessive daytime sleepiness [9]: limited success

c1ccc(C2(N3CCCCC3)CCCCC2)cc1 [phencyclidine]
H3-receptor antagonism potency [8]: very low potency

S=C(NC1CCCCC1)N1CCC(c2cnc[nH]2)CC1 [thioperamide]
effect of levodopa on turning behaviour upon co-administration [10]: not modified
